A word on the Papp: it is the rate of passage across a membrane or cell layer, normalised by area and donor concentration.

A short description of this data set: Apparent permeability of the compound in phosphate buffer saline at 50 to 200 uM after 5 hrs by PAMPA. The class given is ADME. Background: The PAMPA barrier holds no transporters, so it reflects passive diffusion.

Regarding `CN(C)Cc1ccc2c(c1)nc(-c1ccc(F)cc1)n2-c1ccnc(N)n1`, the apparent permeability coefficient (Papp) at 5 h, up to 200 µM came out at 3.2 ×10⁻⁶ cm/s.

Turning to `CN(C)Cc1ccc2c(-c3ccnc(N)n3)c(-c3ccc(F)cc3)nn2c1`, the apparent permeability (Papp) at 5 h, up to 200 µM is 18.5 ×10⁻⁶ cm/s.

In the case of `CN(C)CCNc1ccc2nc(-c3ccc(F)cc3)c(-c3ccnc(N)n3)n2n1`, the apparent permeability (Papp) at 5 h, up to 200 µM worked out at 1 ×10⁻⁶ cm/s.

With `CN1CCC(n2cc(Nc3nccc(-c4c(-c5ccc(F)cc5)nc5ccccn45)n3)cn2)CC1`, the Papp at 5 h, up to 200 µM came to 12.4 ×10⁻⁶ cm/s.

Regarding `Fc1ccc(-c2nc3ccccn3c2-c2ccnc(NC3CCOCC3)n2)cc1`, the apparent permeability coefficient (Papp) at 5 h, up to 200 µM was found to be 14.5 ×10⁻⁶ cm/s.

`CN(C)Cc1ccn2c(-c3ccnc(N)n3)c(-c3ccc(F)cc3)nc2n1`: the apparent permeability (Papp) at 5 h, up to 200 µM turned out to be 11.8 ×10⁻⁶ cm/s.

Turning to `CN(C)Cc1cc2nc(-c3ccc(F)cc3)c(-c3ccnc(N)n3)n2cn1`, the Papp at 5 h, up to 200 µM was 5.8 ×10⁻⁶ cm/s.

With `CN(C)CCCNc1nccc(-c2c(-c3ccc(F)cc3)nc3ccccn23)n1`, the Papp at 5 h, up to 200 µM is 8.2 ×10⁻⁶ cm/s.

For the origin of these results see ChEMBL document CHEMBL4371068, “Potent inhibitors of malarial P. Falciparum protein kinase G: Improving the cell activity of a series of imidazopyridines” (Bioorg Med Chem Lett, 2019).
